# Results reported in ChEMBL document CHEMBL1139592, “Quantitative structure-activity relationship studies for antioxidant hydroxybenzalacetones by quantum chemical- and 3-D-QSAR(CoMFA) analyses” (Bioorg Med Chem Lett, 2005).
# Species: Oryctolagus cuniculus
# Assay: Inhibitory concentration against peroxidation of rabbits red blood cell (RBC) membrane ghost induced by gamma-ray irradiation
# Type: functional
# Conditions: light or radiation study
row,IC50 [µM],SMILES
1,3.98,COc1ccc(O)c(/C=C/C(C)=O)c1
2,2.52,COc1cc(/C=C/C(C)=O)cc(OC)c1O
3,35.5,COc1ccc(/C=C/C(C)=O)c(O)c1
4,3.25,COc1cccc(/C=C/C(C)=O)c1O
5,2.34,CC(=O)/C=C/c1ccc(O)c(O)c1
6,11.5,COc1cc(/C=C/C(C)=O)ccc1O [DEHYDROZINGERONE]

# Second part, the compound before the results:
row,SMILES,IC50 [µM]
1,CC(=O)/C=C/c1cc(C(C)(C)C)ccc1O,8
2,CC(=O)/C=C/c1cccc(F)c1O,51.2
3,CC(=O)/C=C/c1cc(C)ccc1O,8
4,CCOc1cccc(/C=C/C(C)=O)c1O,3.31
5,CC(=O)/C=C/c1cc(Cl)ccc1O,60.3
6,CC(=O)/C=C/c1cc(O)ccc1O,1.43
7,CC(=O)/C=C/c1cccc(C(C)(C)C)c1O,2.19
8,CC(=O)/C=C/c1ccccc1O,37.8
9,CC(=O)/C=C/c1cccc(O)c1O,1.96
10,CC(=O)/C=C/c1cc(C)c(O)c(C)c1,6.32
11,CC(=O)/C=C/c1cccc(C)c1O,3.63
12,CC(=O)/C=C/c1ccc(O)cc1,66.1
